Laboratory results reported in US12427146B2, “C-terminal SRC kinase inhibitors” (INVENTISBIO CO., LTD., priority 2018, dated 2025).

Experiments:
[1] = target: CSK protein (Homo sapiens (Human), UniProt P41240); experiment: CSK Inhibition Assay; type: biochemical
Experimental: Test compound was dissolved in DMSO at 10 mM. 45 uL of compound was transferred into a 384-well compound source plate (LABCYTE cat #P-05525) and serially diluted at 1:3 ratio to create a 11-point dilutions. The same volume of DMSO was adopted as high control. 20 nL of these compounds DMSO dilutes were dispensed into a new 384-well assay plate by Echo 550. […] 15 uL of kinase assay buffer containing CSK protein and substrate was transferred to assay plate and incubated at RT for 30 minutes. Kinase assay buffer supplemented with substrate peptides was employed as low control to monitor the background. 4 μM of ATP was prepared in kinase assay buffer and 5 μL of ATP solution was added to each well to start the reaction. The assay plate was incubated at 25° C. for 90 minutes and the reaction was stopped by adding 40 μL of 0.5 M EDTA.
(§1) Phosphorylated fluorescent-tagged peptides were differentiated from non-phosphorylated peptides by separating using Caliper EZ Reader II and the detection was directly converted to conversion ratio.
(§2) For estimation of IC50, the % substrate conversion values are transformed to % Inhibition Ratio by applying the following equation: […]

[2] = target: LCK protein (Homo sapiens (Human), UniProt P06239); experiment: LCK Inhibition Assay; type: biochemical
Experimental: Test compound was dissolved in DMSO at 10 mM. 45 uL of compound was transfer into a 384-well compound source plate (LABCYTE cat #P-05525) and serially diluted at 1:3 ratio to create a 11-point dilutions. The same volume of DMSO was adopted as high control. 20 nL of these compounds DMSO dilutes were dispensed into a new 384-well assay plate by Echo 550. LCK protein (0.50 nM, Cama Biosciences, cat #08-170), florescent labeled substrate FLPeptide4 (2 μM, PerkinElmer, cat #760348) was prepared in kinase assay buffer (50 mM HEPES (pH 7.5), 10 mM MgCl2, 0.01% Brij-35, 2 mM DTT and 0.005 mg/ml BSA). 15 uL of kinase assay buffer containing LCK protein and substrate was transferred to assay plate and incubate at RT for 30 minutes. Kinase assay buffer supplemented with substrate peptides was employed as low control to monitor the background. 400 μM ATP was prepared in kinase assay buffer and 5 μL of ATP solution was added to each well to start the reaction. The assay plate was incubated at 25° C. for 90 minutes and the reaction was stopped by adding 40 μL of 0.5 M EDTA.
as §1, §2

Chain of LCK protein (P06239 whole entry): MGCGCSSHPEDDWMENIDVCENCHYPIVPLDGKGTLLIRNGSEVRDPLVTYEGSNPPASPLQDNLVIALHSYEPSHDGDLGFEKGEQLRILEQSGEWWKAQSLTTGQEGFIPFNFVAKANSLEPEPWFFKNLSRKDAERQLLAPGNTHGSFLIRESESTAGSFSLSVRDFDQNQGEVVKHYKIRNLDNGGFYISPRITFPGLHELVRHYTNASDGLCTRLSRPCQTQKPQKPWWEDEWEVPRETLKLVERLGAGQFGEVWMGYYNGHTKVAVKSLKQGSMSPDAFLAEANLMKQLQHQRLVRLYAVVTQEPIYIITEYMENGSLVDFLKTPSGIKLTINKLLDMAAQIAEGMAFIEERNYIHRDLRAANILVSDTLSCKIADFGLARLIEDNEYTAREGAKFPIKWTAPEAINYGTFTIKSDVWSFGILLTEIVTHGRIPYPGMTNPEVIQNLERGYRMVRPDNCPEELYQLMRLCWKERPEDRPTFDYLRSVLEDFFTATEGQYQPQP

| IC50 [1] [nM] | IC50 [2] [nM] | selectivity over LCK ([1]; CSK inhibition over LCK) | Compound |
| --- | --- | --- | --- |
| 328 | > 1000 | – | Nc1nccc(-c2sc(-c3ccc(C(F)(F)F)cc3)nc2-c2cccc(NS(=O)(=O)c3c(F)cccc3F)c2F)n1 [Compound 4] |
| 62.7 | > 1000 | – | COc1ccc(-c2nc(-c3cccc(NS(=O)(=O)c4c(F)cccc4F)c3F)c(-c3ccnc(N)n3)s2)cc1 [Compound 5] |
| 50.3 | > 1000 | – | COc1cc(N2CCOCC2)ccc1Nc1nccc(-c2sc(-c3ccccc3)nc2-c2cccc(NS(=O)(=O)c3c(F)cccc3F)c2F)n1 [Compound 9] |
| 30.1 | 100 to 1000 | – | CCn1cc(-c2nc(-c3cccc(NS(=O)(=O)c4c(F)cccc4F)c3F)c(-c3ccnc(N)n3)s2)cn1 [Compound 10] |
| 103 | > 1000 | – | Nc1nccc(-c2sc(-c3cncc(Cl)c3)nc2-c2cccc(NS(=O)(=O)c3c(F)cccc3F)c2F)n1 [Compound 11] |
| 61.6 | > 1000 | – | Nc1nccc(-c2sc(-c3ccc(F)cn3)nc2-c2cccc(NS(=O)(=O)c3c(F)cccc3F)c2F)n1 [Compound 12] |
| 51 | > 1000 | – | Cc1ccc(-c2nc(-c3cccc(NS(=O)(=O)c4c(F)cccc4F)c3F)c(-c3ccnc(N)n3)s2)nn1 [Compound 13] |
| 55.3 | > 1000 | – | Nc1nccc(-c2sc(-c3ccc(F)cc3)nc2-c2cccc(NS(=O)(=O)c3c(F)cccc3F)c2F)n1 [Compound 14] |
| 51.4 | > 1000 | – | Nc1nccc(-c2sc(-c3cccc(F)c3)nc2-c2cccc(NS(=O)(=O)c3c(F)cccc3F)c2F)n1 [Compound 15] |
| 63.6 | > 1000 | – | COC(=O)N[C@@H](C)CNc1nccc(-c2sc(-c3ccccc3)nc2-c2cccc(NS(=O)(=O)c3c(F)cccc3F)c2F)n1 [Compound 16] |
| 25 | > 1000 | – | Nc1nccc(-c2sc(-c3cncc(F)c3)nc2-c2cccc(NS(=O)(=O)c3c(F)cccc3F)c2F)n1 [Compound 17] |
| 144 | > 1000 | – | Nc1nccc(-c2sc(-c3ccccc3)nc2-c2cccc(NS(=O)(=O)c3c(F)cccc3F)c2)n1 [Compound 18] |
| 28.2 | 100 to 1000 | – | COc1cc(NS(=O)(=O)c2c(F)cccc2F)cc(-c2nc(-c3ccccc3)sc2-c2ccnc(N)n2)c1 [Compound 19] |
| – | 100 to 1000 | – | COc1cc(NS(=O)(=O)c2c(F)cccc2F)cc(-c2nc(-c3cncc(F)c3)sc2-c2ccnc(N)n2)c1 [Compound 21] |
| 501 | > 1000 | – | Nc1nccc(-c2sc(-c3ccccc3)nc2-c2cccc(NS(=O)(=O)c3ccccc3)c2F)n1 [Compound 24] |
| > 10000 | – | – | Nc1nccc(-c2sc(-c3ccccc3)nc2-c2cccc(NS(=O)(=O)c3c(F)cccc3F)n2)n1 [Compound 26] |
| 20.5 | > 1000 | – | Nc1nccc(-c2sc(-c3cncnc3)nc2-c2cccc(NS(=O)(=O)c3c(F)cccc3F)c2F)n1 [Compound 29] |
| 41 | 100 to 1000 | – | COc1ccc(-c2nc(-c3cccc(NS(=O)(=O)c4c(F)cccc4F)c3F)c(-c3ccnc(N)n3)s2)nc1 [Compound 30] |
| > 10000 | – | – | O=S(=O)(Nc1cccc(-c2nc(-c3ccc(F)cn3)sc2-c2ccnc(NC3CCCC3)n2)c1F)c1c(F)cccc1F [Compound 31] |
| 2.9 | 100 to 1000 | – | COc1ccc(Nc2nccc(-c3sc(-c4ccc(F)cn4)nc3-c3cccc(NS(=O)(=O)c4c(F)cccc4F)c3F)n2)cn1 [Compound 32] |
| 595 | > 1000 | – | COc1ccccc1Nc1nccc(-c2sc(-c3ccc(F)cn3)nc2-c2cccc(NS(=O)(=O)c3c(F)cccc3F)c2F)n1 [Compound 33] |
| 81.2 | > 1000 | – | Cc1cc(F)c(S(=O)(=O)Nc2cccc(-c3nc(-c4ccccc4)sc3-c3ccnc(N)n3)c2F)c(F)c1 [Compound 35] |
| 48 | > 1000 | – | Cc1ccnc(-c2nc(-c3cccc(NS(=O)(=O)c4c(F)cccc4F)c3F)c(-c3ccnc(N)n3)s2)c1 [Compound 40] |
| 87.3 | > 1000 | – | CC(=O)N[C@@H](C)CNc1nccc(-c2sc(-c3ccccc3)nc2-c2cccc(NS(=O)(=O)c3c(F)cccc3F)c2F)n1 [Compound 41] |
| 37.7 | 100 to 1000 | – | O=S(=O)(Nc1cccc(-c2nc(-c3ccccc3)sc2-c2ccnc(Nc3cccnc3)n2)c1F)c1c(F)cccc1F [Compound 42] |

| IC50 [1] [nM] | IC50 [2] [nM] | selectivity over LCK ([1]; CSK inhibition over LCK) | Compound |
| --- | --- | --- | --- |
| 37.6 | 100 to 1000 | – | Cc1ccc(-c2nc(-c3cccc(NS(=O)(=O)c4c(F)cccc4F)c3F)c(-c3ccnc(N)n3)s2)nc1 [Compound 43] |
| 43.9 | > 1000 | – | C[C@H](Nc1nccc(-c2sc(-c3ccccc3)nc2-c2cccc(NS(=O)(=O)c3c(F)cccc3F)c2F)n1)C(N)=O [Compound 44] |
| 27.3 | > 1000 | – | CNc1nccc(-c2sc(-c3ccccc3)nc2-c2cccc(NS(=O)(=O)c3c(F)cccc3F)c2F)n1 [Compound 46] |
| 29.4 | 100 to 1000 | – | Cc1cncc(-c2nc(-c3cccc(NS(=O)(=O)c4c(F)cccc4F)c3F)c(-c3ccnc(N)n3)s2)c1 [Compound 47] |
| 345 | – | – | C[C@@H](Nc1nccc(-c2sc(-c3ccccc3)nc2-c2cccc(NS(=O)(=O)c3c(F)cccc3F)c2F)n1)C(N)=O [Compound 49] |
| 33.1 | > 1000 | – | CNc1nccc(-c2sc(-c3ccccc3)nc2-c2cccc(NS(=O)(=O)c3c(F)ccc(C)c3F)c2F)n1 [Compound 51] |
| 19.5 | > 1000 | – | Cc1ccc(F)c(S(=O)(=O)Nc2cccc(-c3nc(-c4cc(F)ccn4)sc3-c3ccnc(N)n3)c2F)c1F [Compound 52] |
| 15.6 | > 1000 | – | CNc1nccc(-c2sc(-c3cncc(F)c3)nc2-c2cccc(NS(=O)(=O)c3c(F)ccc(C)c3F)c2F)n1 [Compound 53] |
| 92.8 | > 1000 | – | Cc1ccc(F)c(S(=O)(=O)Nc2cccc(-c3nc(-c4ccc(F)cn4)sc3-c3ccnc(N)n3)c2F)c1F [Compound 54] |
| 30.3 | > 1000 | – | CNc1nccc(-c2sc(-c3ccc(F)cn3)nc2-c2cccc(NS(=O)(=O)c3c(F)ccc(C)c3F)c2F)n1 [Compound 55] |
| 47 | > 1000 | – | CCNc1nccc(-c2sc(-c3ccc(F)cn3)nc2-c2cccc(NS(=O)(=O)c3c(F)ccc(C)c3F)c2F)n1 [Compound 56] |
| 31.5 | > 1000 | – | CNc1nccc(-c2sc(-c3ccc(F)cn3)nc2-c2cccc(NS(=O)(=O)c3c(F)ccc(Cl)c3F)c2F)n1 [Compound 58] |
| 68.4 | > 1000 | – | COC(=O)NCCNc1nccc(-c2sc(-c3ccccc3)nc2-c2cccc(NS(=O)(=O)c3c(F)cccc3F)c2F)n1 [Compound 59] |
| 120 | > 1000 | – | COC(=O)N[C@H](C)CNc1nccc(-c2sc(-c3ccccc3)nc2-c2cccc(NS(=O)(=O)c3c(F)cccc3F)c2F)n1 [Compound 60] |
| 12.6 | > 1000 | – | Cc1ccc(Cl)c(S(=O)(=O)Nc2cccc(-c3nc(-c4cncc(F)c4)sc3-c3ccnc(N)n3)c2F)c1Cl [Compound 61] |
| 1220 | – | – | Cn1c(-c2ccccc2)nc(-c2ccnc(N)n2)c1-c1cccc(NS(=O)(=O)c2c(F)cccc2F)c1F [Compound 86] |
| 947 | – | – | Cn1c(-c2ccccc2)nc(-c2cccc(NS(=O)(=O)c3c(F)cccc3F)c2F)c1-c1ccnc(N)n1 [Compound 87] |
| 321 | – | – | CCn1c(-c2ccccc2)nc(-c2ccnc(N)n2)c1-c1cccc(NS(=O)(=O)c2c(F)cccc2F)c1F [Compound 89] |
| 105 | – | – | COc1ccn2c(-c3ccnc(N)n3)c(-c3cccc(NS(=O)(=O)c4c(F)ccc(C)c4F)c3F)nc2c1 [Compound 99] |
| ~50 | – | about 10 fold | CC(C)(C)c1nc(-c2cccc(NS(=O)(=O)c3c(F)cccc3F)c2F)c(-c2ccnc(N)n2)s1 [Dabrafenib, reference compound] |
| 1060 | – | – | Nc1nccc(-c2sc(-c3cccc(N4CCC4)n3)nc2-c2cccc(NS(=O)(=O)c3c(F)cccc3F)c2F)n1 [compound 1] |
| > 10000 | – | – | O=S(=O)(Nc1cccc(-c2nc(-c3ccccc3)sc2-c2ccnc(NC3CCNCC3)n2)c1F)c1c(F)cccc1F [compound 8] |
| > 10000 | – | – | CN(C)c1nccc(-c2sc(-c3ccccc3)nc2-c2cccc(NS(=O)(=O)c3c(F)cccc3F)c2F)n1 [compound 37] |
| 251 | – | – | Nc1nccc(-c2sc(-c3ccccc3)nc2-c2cccc(NS(=O)(=O)c3ccc4ocnc4c3)c2F)n1 [compound 57] |
| > 10000 | – | – | CCn1c(-c2ccccc2)nc(-c2cccc(NS(=O)(=O)c3c(F)cccc3F)c2F)c1-c1ccnc(N)n1 [compound 88] |
